# Data: patent publication US9376421B2, “Compounds and methods for myotonic dystrophy therapy” (The Board of Trustees of the University of Illinois, priority 2014, dated 2016)
# Entries after “also recorded” stand apart in the source; their conditions may differ.
# Legend:
# [1] = system: (CCUG)6 / (CCUG)8; test: Ligand-RNA binding affinity, CCUG repeats; conditions: (CCUG)8
# Excerpt: Off target activity is a concern for any therapeutic agent but especially one designed to cleave RNA. To test the selectivity of agents 6 and 9, the screening gel assay described above was applied to other RNA targets, specifically cTNT32, (CCUG)8 (SEQ ID NO: 11), and HIV-1 frameshift site RNA (HIV FS) (FIG. 5a). Both 6 and 9 were quite selective. […] Thus, both similarly adopt stem-loop structures with internal loops within the stem, although obviously of different sequences. Differences between 6 and 9 were observed (FIG. 5) with the former cleaving (CCUG)8 (SEQ ID NO: 11), the toxic RNA involved in myotonic dystrophy type 2 (DM2). […] The ability to process the RNA directly parallels the corresponding ligand-RNA binding affinities. Thus, 1, which contains the acridine-triazine core of agent 6, complexes the (CCUG)6 (SEQ ID NO: 12) and (CUG)n sequences.
# [2] = system: HIV FS; test: Ligand-RNA binding affinity, HIV FS; parameters: species or system HIV-1
# [3] = system: d(CTG)12; test: Isothermal titration calorimetry, d(CTG)12; type: binding; conditions: 25° C., 20 mM MOPS pH 7.0, 300 mM NaCl
# Procedure: To directly assess the DNA-targeting ability of 9, ITC experiments were performed with oligonucleotide analogs of the various trinucleotide repeat sequences (Table 1). […] This supports the idea that 9 inhibits the transcription of CTG^exp by stabilizing its hairpin structure. […] The in vitro transcription experiment using (CTG[…]CAG)74 (SEQ ID NOS 3-4, respectively) and compounds 2, 5-7, and 9 was repeated but with (CUG)16 (SEQ ID NO: 1) added as a competitor.
# Isothermal titration calorimetry (ITC) measurements were performed at 25° C. on a MicroCal VP-ITC (MicroCal, Inc., Northampton, Mass.). A standard experiment consisted of titrating 10 μL of a 500 μM ligand solution from a […] syringe (rotating at 300 rpm) into a sample cell containing 1.42 mL of a 10 μM DNA or RNA solution. An ITC experiment consisted of 28 total injections (first injection was 5 μL, subsequent injections were 10 μL), with a 10 s duration per injection and delay of 380 s between injections. The initial delay prior to the first injection was 300 s. To derive the heat associated with each injection, the area under each isotherm (microcalories per second versus seconds) was determined by integration by the graphing program Origin 7.0 (MicroCal, Inc. Northampton, Mass.). […]
# [4] = system: (CTG.CAG)74; test: In vitro transcription of (CTG.CAG)74; type: biochemical
# Procedure: FIG. 8A-B. In vitro transcription of (CTG.CAG)74 (SEQ ID NOS 3-4, respectively). Ligands at different concentrations were incubated with 15 ng linearized plasmids in T7 RNA polymerse mixture at 37° C. After 2 h, the reaction mixture was on a 8% denaturing gel. (a) Transcription gels of ligands at different concentrations (“(CUG)74” is disclosed as SEQ ID NO: 22). (b) Plot of the percentage of transcription inhibition versus ligand concentrations. The error bars represent standard errors of mean of three independent experiments. Untreated at 100 μM is at 0%; ligand 2 at 100 μM is at ˜10%; ligand 7 at 100 μM is at ˜35%; ligand 6 at 100 μM is at ˜80%; ligand 9 at 100 μM is at ˜96%; and ligand 5 at 100 μM is at ˜99%.
# (SEQ ID NOS 3-4, respectively) transcription by 5, 6, and 9 in vitro. […] Nonetheless, the additional ammonium groups in these agents might potentially increase their affinity for both CTG DNA and CUG RNA so we returned to examine the potential for inhibition of CTG^exp transcription. The in vitro (CTG.CAG)74 (SEQ ID NOS 3-4, respectively) transcription assays utilized a T7 promoter located in the upstream region of the repeats.
# (SEQ ID NOS 3-4, respectively). T7 RNA polymerase-mediated transcription reactions were incubated at 37° C. for 2 h. A 10 μL mixture contained 15 ng of linearized plasmid (CTG)74 (SEQ ID NO: 3) or control plasmid templates, 0.5 mM each rATP, rCTP, rGTP, and rUTP and 0.5 U T7 polymerase (Biolab) in 1×T7 transcription buffer (80 mM Tris pH 8.3, 10 mM MgCl2, 2 mM spermine, 0.1% Triton-X, 10 mM NaCl). Ligand was added with the final concentrations of 0, 1, 10, 50, and 100 μM prior to incubation. Reactions were quenched by adding 8 μL of 8 M Urea and 2 μL of denaturing dye (95% formamide, 5 mM EDTA, 0.025% each xylene cyanol and bromophenol blue) and heating to 95° C. for 5 min. Of this solution, 15 μL was run on a 8% denaturing polyacrylamide gel in 0.5×TBE and stained with EtBr. Bands were quantified using the ImageJ (NIH). The intensity of (CUG)74 (SEQ ID NO: 22) band (ca. 260 nt) was normalized to that from the untreated transcription reaction. […]
# [5] = system: cTNT32; test: Ligand-RNA binding affinity, cTNT32
smiles,measurement,setting,value
N=C(NCCCCNc1nc(N)nc(N)n1)c1ccc(C(=N)NCCCCNc2nc(N)nc(N)n2)cc1 [Ligand 2],affinity toward (CCUG)8,[1],no affinity
same,affinity toward HIV FS,[2],no affinity
same,binding affinity toward d(CTG)12 by ITC,[3],lack of binding affinity; also recorded: no detectable binding
same,transcription inhibition of (CTG.CAG)74 at 100 μM,"[4]; 100 μM, 2 h, 37° C., T7 RNA polymerase",~10%
same,inhibition of (CTG.CAG)74 transcription (qualitative),[4]; 1-100 μM,negligible effects
same,affinity toward cTNT32,[5],no affinity
